We go through 30 compounds from patent US20250304567A1, “PYRROLIDIONE DERIVATIVES AS INHIBITORS OF NF KAPPA B INDUCING KINASE” (priority 2022, published 2025).

In assay [1] the target is Recombinant Human NF-kappaB-Inducing Kinase (NIK/MAP3K14) (Homo sapiens, UniProt Q99558). The assay is described as follows: Inhibition of auto-phosphorylation of recombinant human NIK/MAP3K14 activity (AlphaScreen). It counts as biochemical. The conditions noted are these: 5 μM ATP, 1 nM NIK, average if tested more than once. An outline of the steps: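 GST-tagged NIK (1 nM) auto-phosphorylation with 5 μM ATP, 2 h at 25 °C, pH 7.5 Tris buffer, 0.7% DMSO; stopped with anti-phospho-IKK Ser176/180 antibody and read by AlphaScreen. Signal normalized to full-activity and no-enzyme/no-ATP controls; IC50 from sigmoidal fit of % inhibition vs log concentration.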
Chain of Recombinant Human NF-kappaB-Inducing Kinase (NIK/MAP3K14) (Q99558 whole entry): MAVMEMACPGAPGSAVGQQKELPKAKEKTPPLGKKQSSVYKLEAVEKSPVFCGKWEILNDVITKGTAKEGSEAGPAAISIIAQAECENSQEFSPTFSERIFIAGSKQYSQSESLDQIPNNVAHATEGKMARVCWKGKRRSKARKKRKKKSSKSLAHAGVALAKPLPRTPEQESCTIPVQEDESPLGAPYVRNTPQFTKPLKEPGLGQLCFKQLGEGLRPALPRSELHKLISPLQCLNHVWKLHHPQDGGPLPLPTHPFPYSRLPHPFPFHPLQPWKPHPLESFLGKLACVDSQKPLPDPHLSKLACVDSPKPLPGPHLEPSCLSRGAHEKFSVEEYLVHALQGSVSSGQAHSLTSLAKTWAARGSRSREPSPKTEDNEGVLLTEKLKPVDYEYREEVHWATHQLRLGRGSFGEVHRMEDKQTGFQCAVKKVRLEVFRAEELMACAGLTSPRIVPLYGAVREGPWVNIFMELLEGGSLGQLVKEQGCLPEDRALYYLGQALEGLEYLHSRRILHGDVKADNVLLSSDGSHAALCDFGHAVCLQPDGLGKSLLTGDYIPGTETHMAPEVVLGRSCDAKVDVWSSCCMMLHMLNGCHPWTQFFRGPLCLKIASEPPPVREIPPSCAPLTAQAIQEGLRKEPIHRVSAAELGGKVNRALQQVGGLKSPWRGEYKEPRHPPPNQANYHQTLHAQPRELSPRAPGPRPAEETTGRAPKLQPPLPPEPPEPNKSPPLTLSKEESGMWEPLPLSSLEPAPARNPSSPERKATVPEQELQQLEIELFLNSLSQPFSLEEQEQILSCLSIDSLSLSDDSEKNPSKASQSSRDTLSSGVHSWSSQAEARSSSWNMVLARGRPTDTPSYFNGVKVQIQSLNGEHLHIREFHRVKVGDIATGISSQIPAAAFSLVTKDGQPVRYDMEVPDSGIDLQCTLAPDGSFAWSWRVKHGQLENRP
(Bead proximity is the source of the signal in Alpha formats.)

In assay [2] the test system is p-IKKa levels in L363 (NIK translocated multiple myeloma) cells. As to the kind of experiment: Effect of compounds on p-IKKa levels in L363 (NIK translocated multiple myeloma) cells (AlphaLISA SureFire Ultra p-IKKa Ser176/180). It counts as cell-based, human. The conditions noted are these: Homo sapiens, L-363, p-IKKa levels in L363 cells; average if tested more than once; read-out: Assay 2 IC50. In outline:
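L363 multiple myeloma cells, BAFF-stimulated overnight (250 ng/ml), then 6 h at 37 °C with compound (11-point 1:3 series, 0.3% DMSO) plus BAFF and 10 μM MG132. p-IKKa Ser176/180 read by AlphaLISA SureFire Ultra; IC50 from sigmoidal fit normalised to stimulated and unstimulated controls.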

SMILES strings stand for the structures.

The term IC50 denotes the concentration at which inhibition is half-maximal. As to `COc1ccnc(Nc2nccc(-c3csc(-c4cccc([C@]5(O)CCN(C)C5=O)c4)n3)n2)c1` [Example 162, (R)-3-Hydroxy-3-(3-(4-(2-((4-methoxypyridin-2-yl)amino)pyrimidin-4-yl)thiazol-2-yl)phenyl)-1-methylpyrrolidin-2-one], the values for the IC50 in assay [1] and in assay [2] were less than 100 nM and greater than 501 nM, respectively.
Regarding `CN1CC[C@@](O)(c2cccc(-c3nc(-c4ccnc(Nc5ncccc5F)n4)cs3)c2)C1=O` [Example 163, (R)-3-(3-(4-(2-((3-Fluoropyridin-2-yl)amino)pyrimidin-4-yl)thiazol-2-yl)phenyl)-3-hydroxy-1-methylpyrrolidin-2-one], the IC50 in assay [1] was 100 to 500 nM; in assay [2] it was greater than 501 nM.
Consider `CN1CC[C@@](O)(c2cccc(-c3nc(-c4ccnc(Nc5cc(C6CC6)nn5C)n4)cs3)c2)C1=O` [Example 164, (R)-3-(3-(4-(2-((3-Cyclopropyl-1-methyl-1H-pyrazol-5-yl)amino)pyrimidin-4-yl)thiazol-2-yl)phenyl)-3-hydroxy-1-methylpyrrolidin-2-one], for which the figures for the IC50 in assay [1] and in assay [2] were less than 100 nM and 100 to 500 nM, respectively.
The corresponding values for `CN1CC[C@@](O)(c2cccc(-c3nc(-c4ccnc(Nc5nccc(C(F)(F)F)n5)n4)cs3)c2)C1=O` [Example 165, (R)-3-Hydroxy-1-methyl-3-(3-(4-(2-((4-(trifluoromethyl)pyrimidin-2-yl)amino)pyrimidin-4-yl)thiazol-2-yl)phenyl)pyrrolidin-2-one] are 100 to 500 nM and greater than 501 nM.
The matching figures for `CN1CC[C@@](O)(c2cccc(-c3nc(-c4ccnc(Nc5cccnc5C(F)(F)F)n4)cs3)c2)C1=O` [Example 166, (R)-3-Hydroxy-1-methyl-3-(3-(4-(2-((2-(trifluoromethyl)pyridin-3-yl)amino)pyrimidin-4-yl)thiazol-2-yl)phenyl)pyrrolidin-2-one]: less than 100 nM and greater than 501 nM.
The matching figures for `CN1CC[C@@](O)(c2cccc(-c3nc(-c4ccnc(Nc5cccc(OC(F)(F)F)n5)n4)cs3)c2)C1=O` [Example 167, (R)-3-Hydroxy-1-methyl-3-(3-(4-(2-((6-(trifluoromethoxy)pyridin-2-yl)amino)pyrimidin-4-yl)thiazol-2-yl)phenyl)pyrrolidin-2-one]: less than 100 nM and greater than 501 nM.
As for `CN1CC[C@@](O)(c2cccc(-c3nc(-c4ccnc(Nc5cccc(OC(F)F)n5)n4)cs3)c2)C1=O` [Example 168, (R)-3-(3-(4-(2-((6-(Difluoromethoxy)pyridin-2-yl)amino)pyrimidin-4-yl)thiazol-2-yl)phenyl)-3-hydroxy-1-methylpyrrolidin-2-one], the IC50 in assay [1] is less than 100 nM; in assay [2] it was greater than 501 nM.
Turning to `CN1CC[C@@](O)(c2cccc(-c3nc(-c4ccnc(Nc5cccc(C(F)(F)F)n5)n4)cs3)c2)C1=O` [Example 169, (R)-3-Hydroxy-1-methyl-3-(3-(4-(2-((6-(trifluoromethyl)pyridin-2-yl)amino)pyrimidin-4-yl)thiazol-2-yl)phenyl)pyrrolidin-2-one], the IC50 was less than 100 nM in assay [1] and greater than 501 nM in assay [2].
The corresponding values for `CNc1nccc(-c2csc(-c3cccc([C@]4(O)CCN(C)C4=O)c3)n2)n1` [Example 170] are 100 to 500 nM and greater than 501 nM.
The matching figures for `CN1CC[C@@](O)(c2cccc(-c3nc(-c4ccnc(N[C@@H]5CNC(=O)C5)n4)cs3)c2)C1=O` [Example 171]: less than 100 nM and greater than 501 nM.
With `CC(=O)N1CC(Nc2nccc(-c3csc(-c4cccc([C@]5(O)CCN(C)C5=O)c4)n3)n2)C1` [Example 172], the figures for the IC50 in assay [1] and in assay [2] were 100 to 500 nM and greater than 501 nM, respectively.
`CN1CC[C@@](O)(c2cccc(-c3nc(-c4ccnc(NCCS(C)(=O)=O)n4)cs3)c2)C1=O` [Example 173]: the figures for the IC50 in assay [1] and in assay [2] were 100 to 500 nM and greater than 501 nM, respectively.
The corresponding values for `CN1CC[C@@](O)(c2cccc(-c3nc(-c4ccnc(NCCCO)n4)cs3)c2)C1=O` [Example 174] are less than 100 nM and greater than 501 nM.
Regarding `Cc1nnc(Nc2nccc(-c3csc(-c4cccc([C@]5(O)CCN(C)C5=O)c4)n3)n2)o1` [Example 175], the IC50 in assay [1] is 100 to 500 nM; in assay [2] it was greater than 501 nM.
On to `CN1CC[C@@](O)(c2cccc(-c3nc(-c4ccnc(Nc5ccnn5C)n4)cs3)c2)C1=O` [Example 176], for which the IC50 in assay [1] and in assay [2] was less than 100 nM in each case.
Take `CN1CC[C@@](O)(c2cccc(-c3nc(-c4ccnc(Nc5cnn(C)c5)n4)cs3)c2)C1=O` [Example 177]: the IC50 in assay [1] and in assay [2] was less than 100 nM throughout.
Consider `Cc1c(Nc2nccc(-c3csc(-c4cccc([C@]5(O)CCN(C)C5=O)c4)n3)n2)ncn1C` [Example 178], for which the IC50 in assay [1] and in assay [2] was greater than 501 nM throughout.
Consider `CN1CC[C@@](O)(c2cccc(-c3nc(-c4ccnc(Nc5cn6ccccc6n5)n4)cs3)c2)C1=O` [Example 179], for which the IC50 in assay [1] and in assay [2] was greater than 501 nM each time.
Regarding `CN1CC[C@@](O)(c2cccc(-c3nc(-c4ccnc(N[C@H]5C[C@@H](O)C5)n4)cs3)c2)C1=O` [Example 180], the concentration for half-maximal inhibition (IC50) is 100 to 500 nM in assay [1] and greater than 501 nM in assay [2].
The corresponding values for `CN1CC[C@@](O)(c2cccc(-c3nc(-c4ccnc(NC5CCOCC5)n4)cs3)c2)C1=O` [Example 181] are 100 to 500 nM and greater than 501 nM.
The corresponding values for `CN1CC[C@@](O)(c2cccc(-c3nc(-c4ccnc(NCc5ccccn5)n4)cs3)c2)C1=O` [Example 182] are 100 to 500 nM and greater than 501 nM.
The corresponding values for `CN1CC[C@@](O)(c2cccc(-c3nc(-c4ccnc(NCc5cnn(C)c5)n4)cs3)c2)C1=O` [Example 183] are less than 100 nM and greater than 501 nM.
`CN1CC[C@@](O)(c2cccc(-c3nc(-c4ccnc(NCc5ccn(C)n5)n4)cs3)c2)C1=O` [Example 184]: the IC50 in assay [1] is less than 100 nM; in assay [2] it was greater than 501 nM.
The corresponding values for `C[C@@H](Nc1nccc(-c2csc(-c3cccc([C@]4(O)CCN(C)C4=O)c3)n2)n1)c1ccccn1` [Example 185] are less than 100 nM and greater than 501 nM.
The matching figures for `C[C@H](Nc1nccc(-c2csc(-c3cccc([C@]4(O)CCN(C)C4=O)c3)n2)n1)c1ccccn1` [Example 186]: 100 to 500 nM and greater than 501 nM.
Regarding `CN1CC[C@@](O)(c2cccc(-c3nc(-c4ccnc(NCCc5cnn(C)c5)n4)cs3)c2)C1=O` [Example 187], the IC50 is less than 100 nM in assay [1] and greater than 501 nM in assay [2].
The corresponding values for `CN1CC[C@@](O)(c2cccc(-c3nc(-c4ccnc(NC5CC6(CC(O)C6)C5)n4)cs3)c2)C1=O` (stereo partly drawn) [Example 188] are 100 to 500 nM and greater than 501 nM.
The matching figures for `CN1CC[C@@](O)(c2cccc(-c3nc(-c4ccnc(NCCc5ccccn5)n4)cs3)c2)C1=O` [Example 189]: 100 to 500 nM and greater than 501 nM.
The matching figures for `CN1CC[C@@](O)(c2cccc(-c3nc(-c4ccnc(NCC5CCO5)n4)cs3)c2)C1=O` (stereo partly drawn) [Example 190]: 100 to 500 nM and greater than 501 nM.
For `CN1CC[C@@](O)(c2cccc(-c3nc(-c4ccnc(NC5(CO)CCC5)n4)cs3)c2)C1=O` [Example 191], the IC50 was less than 100 nM in assay [1] and greater than 501 nM in assay [2].
